Data taken from patent US20180099931A1 (AbbVie S.à.r.l., priority 2016, published 2018).
pEC50: −log10 of the molar value. Where two headings read alike, the source gives them in different places.

Biological target: T1, F508delCFTR (Homo sapiens, UniProt P13569, DEL508-508)
T1 construct: expressed in transfected cells; host or cells: CFBE41o- human lung-derived epithelial cells (CFBE4lo-F508delCFTR-HRP), doxycycline-inducible
Experiment: Cell Surface Expression-Horse Radish Peroxidase (CSE-HRP) Assay;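 as to Maximum % activity (with co-corrector): co-corrector and positive control are both the same reference corrector at 2 µM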;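 as to Maximum % activity (without co-corrector): percent of the 2 µM on-plate positive control corrector response above DMSO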
Format: cell-based
Details: for Emax / Maximum % activity (with co-corrector): maximum at any tested concentration, normalized to on-plate positive control; for Emax: read-out: Maximum % activity (without co-corrector); for Maximum % activity (with co-corrector): with co-corrector (2 μM)

[1] = test compound without co-corrector
[2] = test compound without co-corrector, read-out: EC50 (without co-corrector)
[3] = with co-corrector (2 μM of 3-[(2R,4R)-4-({[1-(2,2-difluoro-1,3-benzodioxol-5-yl)cyclopropyl]carbonyl}amino)-7-methoxy-3,4-dihydro-2H-chromen-2-yl]benzoic acid), read-out: EC50 (with co-corrector)

T1 sequence (P13569 with tags, fused parts or gaps DEL508-508): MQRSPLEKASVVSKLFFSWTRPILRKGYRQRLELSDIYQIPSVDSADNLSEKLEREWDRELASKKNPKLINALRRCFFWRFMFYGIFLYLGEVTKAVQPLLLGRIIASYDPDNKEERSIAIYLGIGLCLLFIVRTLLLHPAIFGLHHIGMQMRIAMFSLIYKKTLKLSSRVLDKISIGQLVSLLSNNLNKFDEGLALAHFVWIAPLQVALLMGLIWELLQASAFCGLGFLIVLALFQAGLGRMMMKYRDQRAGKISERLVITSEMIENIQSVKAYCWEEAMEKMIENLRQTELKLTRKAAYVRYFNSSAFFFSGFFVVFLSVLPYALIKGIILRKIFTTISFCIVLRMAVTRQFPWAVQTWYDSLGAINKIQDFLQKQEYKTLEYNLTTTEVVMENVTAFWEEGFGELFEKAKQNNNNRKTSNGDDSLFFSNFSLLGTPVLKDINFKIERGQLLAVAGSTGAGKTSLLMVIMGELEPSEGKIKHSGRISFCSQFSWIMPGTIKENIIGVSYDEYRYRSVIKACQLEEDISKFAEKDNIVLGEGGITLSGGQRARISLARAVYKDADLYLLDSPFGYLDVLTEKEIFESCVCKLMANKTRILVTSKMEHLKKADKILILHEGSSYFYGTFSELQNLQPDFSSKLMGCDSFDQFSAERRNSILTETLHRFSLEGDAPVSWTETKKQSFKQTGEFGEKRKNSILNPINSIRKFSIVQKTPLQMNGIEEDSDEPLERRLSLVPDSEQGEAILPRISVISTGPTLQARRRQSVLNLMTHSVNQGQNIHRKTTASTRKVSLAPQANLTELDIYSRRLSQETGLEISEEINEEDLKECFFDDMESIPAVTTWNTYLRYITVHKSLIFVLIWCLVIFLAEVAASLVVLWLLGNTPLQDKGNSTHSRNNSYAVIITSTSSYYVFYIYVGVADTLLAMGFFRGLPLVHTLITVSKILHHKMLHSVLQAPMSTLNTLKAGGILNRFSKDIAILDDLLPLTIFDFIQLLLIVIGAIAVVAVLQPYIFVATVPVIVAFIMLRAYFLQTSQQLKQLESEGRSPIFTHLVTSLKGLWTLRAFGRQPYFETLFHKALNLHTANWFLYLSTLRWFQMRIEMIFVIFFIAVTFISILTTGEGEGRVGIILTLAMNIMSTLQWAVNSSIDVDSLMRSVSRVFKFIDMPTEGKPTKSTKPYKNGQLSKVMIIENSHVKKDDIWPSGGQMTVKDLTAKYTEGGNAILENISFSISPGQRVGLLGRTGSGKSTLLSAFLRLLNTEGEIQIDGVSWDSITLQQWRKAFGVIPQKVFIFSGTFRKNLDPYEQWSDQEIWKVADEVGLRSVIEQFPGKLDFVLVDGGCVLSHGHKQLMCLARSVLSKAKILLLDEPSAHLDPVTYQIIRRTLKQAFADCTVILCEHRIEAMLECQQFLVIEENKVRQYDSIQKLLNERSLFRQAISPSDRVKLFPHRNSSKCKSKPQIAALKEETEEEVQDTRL

Row | Compound | Emax [1] | pEC50 [2] | pEC50 [3] | Maximum % activity (with co-corrector)
1 | CC(C)(C)[C@H]1[C@H](NCc2ccc3c(c2)OC(F)(F)O3)[C@H](c2ccccc2)N(C(=O)C2CCCCC2)[C@@H]1C(=O)O [III-132] | < 100% | < 5.00 | 5.00 to 6.00 | ++ (≥150 and <350)
2 | COc1cc(CN[C@H]2[C@H](C(C)(C)C)[C@@H](C(=O)O)N(C(=O)C3CCCCC3)[C@H]2c2ccccc2)cc(OC)c1 [III-133] | < 100% | < 5.00 | 5.00 to 6.00 | ++ (≥150 and <350)
3 | Cc1ccc(CN[C@H]2[C@H](C(C)(C)C)[C@@H](C(=O)O)N(C(=O)C3CCCCC3)[C@H]2c2ccccc2)cc1C [III-134] | < 100% | 5.00 to 6.00 | 5.00 to 6.00 | ++ (≥150 and <350)
4 | CC(C)(C)[C@H]1[C@H](NCc2ccc3occc3c2)[C@H](c2ccccc2)N(C(=O)C2CCCCC2)[C@@H]1C(=O)O [III-135] | < 100% | < 5.00 | 5.00 to 6.00 | ++ (≥150 and <350)
5 | CC(C)(C)[C@H]1[C@H](NCc2ccc(C(F)(F)F)cc2F)[C@H](c2ccccc2)N(C(=O)C2CCCCC2)[C@@H]1C(=O)O [III-136] | < 100% | < 5.00 | 5.00 to 6.00 | ++ (≥150 and <350)
6 | COc1ccc(C(F)(F)F)cc1CN[C@H]1[C@H](C(C)(C)C)[C@@H](C(=O)O)N(C(=O)C2(S(C)(=O)=O)CC2)[C@H]1c1ccccc1 [III-137] | < 100% | 5.00 to 6.00 | 5.00 to 6.00 | ++ (≥150 and <350)
7 | CC(C)(C)[C@H]1[C@H](NCc2ccc(C(F)(F)F)cc2)[C@H](c2ccccc2)N(C(=O)C2CCCCC2)[C@@H]1C(=O)O [III-138] | < 100% | < 5.00 | 5.00 to 6.00 | ++ (≥150 and <350)
8 | CC(C)(C)[C@H]1[C@H](NCc2ccccc2C(F)F)[C@H](c2ccccc2)N(C(=O)C2CCCCC2)[C@@H]1C(=O)O [III-139] | < 100% | > 6.00 | > 6.00 | ++ (≥150 and <350)
9 | CC(C)(C)[C@H]1[C@H](NCc2cc(Cl)c3c(c2)OCO3)[C@H](c2ccccc2)N(C(=O)C2CCCCC2)[C@@H]1C(=O)O [III-140] | < 100% | < 5.00 | 5.00 to 6.00 | ++ (≥150 and <350)
10 | Cc1cc(CN[C@H]2[C@H](C(C)(C)C)[C@@H](C(=O)O)N(C(=O)C3CCCCC3)[C@H]2c2ccccc2)cc(C)c1OC(F)F [III-141] | < 100% | 5.00 to 6.00 | 5.00 to 6.00 | ++ (≥150 and <350)
11 | CC(C)(C)[C@H]1[C@H](NCc2cc3c(cc2Cl)OCO3)[C@H](c2ccccc2)N(C(=O)C2CCCCC2)[C@@H]1C(=O)O [III-142] | < 100% | 5.00 to 6.00 | 5.00 to 6.00 | ++ (≥150 and <350)
12 | CC(C)(C)[C@H]1[C@H](Nc2nc(Cl)c(F)cc2C#N)[C@H](c2ccccc2)N(C(=O)C2CCCCC2)[C@@H]1C(=O)O [III-145] | < 100% | 5.00 to 6.00 | 5.00 to 6.00 | ++ (≥150 and <350)
13 | CC(C)(C)[C@H]1[C@H](Nc2cc(C#N)cc(Cl)n2)[C@H](c2ccccc2)N(C(=O)C2CCCCC2)[C@@H]1C(=O)O [III-146] | < 100% | < 5.00 | 5.00 to 6.00 | ++ (≥150 and <350)
14 | CC(C)(O)c1cc(Cl)nc(N[C@H]2[C@H](C(C)(C)C)[C@@H](C(=O)O)N(C(=O)C3CCCCC3)[C@H]2c2ccccc2)c1 [III-147] | < 100% | < 5.00 | 5.00 to 6.00 | ++ (≥150 and <350)
15 | Cc1cc(C)c(C#N)c(N[C@H]2[C@H](C(C)(C)C)[C@@H](C(=O)O)N(C(=O)C3CCCCC3)[C@H]2c2ccccc2)n1 [III-148] | < 100% | 5.00 to 6.00 | 5.00 to 6.00 | +++ (≥350)
16 | CCc1cc2ccc(Cl)cc2nc1N[C@H]1[C@H](C(C)(C)C)[C@@H](C(=O)O)N(C(=O)C2CCCCC2)[C@H]1c1ccccc1 [III-149] | 100 to 200% | 5.00 to 6.00 | 5.00 to 6.00 | +++ (≥350)
17 | CC(C)(C)[C@H]1[C@H](Nc2nc(Nc3ccccc3)ccc2C#N)[C@H](c2ccccc2)N(C(=O)C2CCCCC2)[C@@H]1C(=O)O [III-150] | < 100% | < 5.00 | < 5.00 | + (<150)
18 | COc1ccc2c(C)cc(N[C@H]3[C@H](C(C)(C)C)[C@@H](C(=O)O)N(C(=O)C4CCCCC4)[C@H]3c3ccccc3)nc2c1 [III-151] | < 100% | 5.00 to 6.00 | 5.00 to 6.00 | ++ (≥150 and <350)

Row | Compound | Emax [1] | pEC50 [2] | pEC50 [3] | Maximum % activity (with co-corrector)
19 | CCOc1cc(N[C@H]2[C@H](C(C)(C)C)[C@@H](C(=O)O)N(C(=O)C3CCCCC3)[C@H]2c2ccccc2)nc2ccccc12 [III-152] | < 100% | < 5.00 | 5.00 to 6.00 | ++ (≥150 and <350)
20 | CC(C)(C)[C@H]1[C@H](Nc2ccc(Cn3ccccc3=O)cn2)[C@H](c2ccccc2)N(C(=O)C2CCCCC2)[C@@H]1C(=O)O [III-153] | < 100% | < 5.00 | < 5.00 | + (<150)
21 | COc1ccc2cc(C)nc(N[C@H]3[C@H](C(C)(C)C)[C@@H](C(=O)O)N(C(=O)C4CCCCC4)[C@H]3c3ccccc3)c2c1 [III-154] | < 100% | 5.00 to 6.00 | 5.00 to 6.00 | ++ (≥150 and <350)
22 | CC(C)(C)NC(=O)c1ccc(N[C@H]2[C@H](C(C)(C)C)[C@@H](C(=O)O)N(C(=O)C3CCCCC3)[C@H]2c2ccccc2)nc1 [III-155] | < 100% | < 5.00 | 5.00 to 6.00 | + (<150)
23 | CC(C)(C)[C@H]1[C@H](Nc2cc3ccccc3cn2)[C@H](c2ccccc2)N(C(=O)C2CCCCC2)[C@@H]1C(=O)O [III-156] | < 100% | > 6.00 | 5.00 to 6.00 | ++ (≥150 and <350)
24 | Cn1c(=O)c2c(N[C@H]3[C@H](C(C)(C)C)[C@@H](C(=O)O)N(C(=O)C4CCCCC4)[C@H]3c3ccccc3)nccc2n(C)c1=O [III-157] | < 100% | < 5.00 | 5.00 to 6.00 | ++ (≥150 and <350)
25 | CC(C)(C)[C@H]1[C@H](Nc2ccc(C3(C#N)CC3)cn2)[C@H](c2ccccc2)N(C(=O)C2CCCCC2)[C@@H]1C(=O)O [III-159] | < 100% | < 5.00 | 5.00 to 6.00 | ++ (≥150 and <350)
26 | CC(C)(C)[C@H]1[C@H](Nc2ncccc2OCc2ccccc2)[C@H](c2ccccc2)N(C(=O)C2CCCCC2)[C@@H]1C(=O)O [III-160] | < 100% | 5.00 to 6.00 | 5.00 to 6.00 | ++ (≥150 and <350)
27 | CC(C)(C)NC(=O)c1cncc(N[C@H]2[C@H](C(C)(C)C)[C@@H](C(=O)O)N(C(=O)C3CCCCC3)[C@H]2c2ccccc2)c1 [III-161] | < 100% | < 5.00 | < 5.00 | + (<150)
28 | CC(C)(C)[C@H]1[C@H](Nc2cncc3ccccc23)[C@H](c2ccccc2)N(C(=O)C2CCCCC2)[C@@H]1C(=O)O [III-162] | < 100% | 5.00 to 6.00 | 5.00 to 6.00 | ++ (≥150 and <350)
29 | COc1cc(C(F)(F)F)ccc1CN[C@H]1[C@H](C(C)(C)C)[C@@H](C(=O)O)N(C(=O)c2cccnc2)[C@H]1c1ccccc1 [III-163] | < 100% | 5.00 to 6.00 | 5.00 to 6.00 | ++ (≥150 and <350)
30 | COc1ccc(C(F)(F)F)cc1CN[C@H]1[C@H](C(C)(C)C)[C@@H](C(=O)O)N(C(=O)C2CCCCC2)[C@H]1c1ncccc1Cl [III-164] | < 100% | < 5.00 | 5.00 to 6.00 | ++ (≥150 and <350)
31 | COc1ncc(C(F)(F)F)cc1CN[C@@H]1[C@@H](C(C)(C)C)[C@H](C(=O)O)N(C(=O)[C@@H]2CCCCO2)[C@@H]1c1ccccc1 [III-165] | < 100% | 5.00 to 6.00 | 5.00 to 6.00 | ++ (≥150 and <350)
32 | COc1ccc(C(C)(C)C)cc1CN[C@H]1[C@H](C(C)(C)C)[C@@H](C(=O)O)N(C(=O)Cc2ccc(Cl)cc2)[C@H]1c1ccccc1 [III-166] | 100 to 200% | 5.00 to 6.00 | > 6.00 | +++ (≥350)
33 | COc1ccc(C(C)(C)C)cc1CN[C@H]1[C@H](C(C)(C)C)[C@@H](C(=O)O)N(C(=O)CC2CCCCC2)[C@H]1c1ccccc1 [III-167] | > 200% | 5.00 to 6.00 | > 6.00 | +++ (≥350)
34 | CCC(C)c1ccc(OC)c(CN[C@H]2[C@H](C(C)(C)C)[C@@H](C(=O)O)N(C(=O)C3CCCCC3)[C@H]2c2ccccc2)c1 (stereo partly drawn) [III-168] | > 200% | > 6.00 | > 6.00 | +++ (≥350)
35 | COc1ccc(CC2CCCCC2)cc1CN[C@H]1[C@H](C(C)(C)C)[C@@H](C(=O)O)N(C(=O)C2CCCCC2)[C@H]1c1ccccc1 [III-169] | > 200% | > 6.00 | > 6.00 | +++ (≥350)
36 | CCC(CC)Cc1ccc(OC)c(CN[C@H]2[C@H](C(C)(C)C)[C@@H](C(=O)O)N(C(=O)C3CCCCC3)[C@H]2c2ccccc2)c1 [III-170] | > 200% | > 6.00 | > 6.00 | +++ (≥350)
